Measurements from ChEMBL document CHEMBL3399970, “Synthesis of novel pleuromutilin derivatives. Part 1: preliminary studies of antituberculosis activity” (2015).
Converted amounts (≈) assume the structure as drawn.

test system: Mycobacterium tuberculosis; assay: Antimycobacterial activity against Mycobacterium tuberculosis H37Rv assessed as inhibition at 20 uM; assay type: functional

Row | Compound | inhibition at 20 µM [%]
1 | C=C[C@]1(C)C[C@@H](OC(=O)CN(CC)Cc2ccccc2)[C@]2(C)[C@H](C)CC[C@]3(CCC(=O)[C@H]32)[C@@H](C)[C@@H]1O | 100
2 | C=C[C@]1(C)C[C@@H](OC(=O)CN(CC)Cc2ccc(N(CC)CC)cc2)[C@]2(C)[C@H](C)CC[C@]3(CCC(=O)[C@H]32)[C@@H](C)[C@@H]1O | 99
3 | C=C[C@]1(C)C[C@@H](OC(=O)CN(CC)Cc2ccc(Oc3ccccc3)cc2)[C@]2(C)[C@H](C)CC[C@]3(CCC(=O)[C@H]32)[C@@H](C)[C@@H]1O | 100
4 | C=C[C@]1(C)C[C@@H](OC(=O)CN(Cc2ccccc2)Cc2ccc(Oc3ccccc3)cc2)[C@]2(C)[C@H](C)CC[C@]3(CCC(=O)[C@H]32)[C@@H](C)[C@@H]1O | 101
5 | C=C[C@]1(C)C[C@@H](OC(=O)CN(CC)Cc2cccc(Cl)c2)[C@]2(C)[C@H](C)CC[C@]3(CCC(=O)[C@H]32)[C@@H](C)[C@@H]1O | 99
6 | C=C[C@]1(C)C[C@@H](OC(=O)CN(Cc2ccc(Oc3ccccc3)cc2)C2CCCCC2)[C@]2(C)[C@H](C)CC[C@]3(CCC(=O)[C@H]32)[C@@H](C)[C@@H]1O | 88
7 | C=C[C@]1(C)C[C@@H](OC(=O)CN(N2CCCCC2)S(=O)(=O)c2ccc(N)cc2)[C@]2(C)[C@H](C)CC[C@]3(CCC(=O)[C@H]32)[C@@H](C)[C@@H]1O | 60
8 | C=C[C@]1(C)C[C@@H](OC(=O)CN(CC)Cc2cccc(C)c2)[C@]2(C)[C@H](C)CC[C@]3(CCC(=O)[C@H]32)[C@@H](C)[C@@H]1O | 16

test system: Mycobacterium tuberculosis; assay: Antimycobacterial activity against Mycobacterium tuberculosis H37Rv assessed as complete inhibition of proliferation; assay type: functional

Row | Compound | MIC [µM]
9 | C=C[C@]1(C)C[C@@H](OC(=O)CN(CC)Cc2ccc(N(CC)CC)cc2)[C@]2(C)[C@H](C)CC[C@]3(CCC(=O)[C@H]32)[C@@H](C)[C@@H]1O | 7.2 (≈ 4.08 µg/mL)
